Experimental data taken from patent US20260021103A1, “IKZF2 AND CK1-ALPHA DEGRADING COMPOUNDS AND USES THEREOF” (President and Fellows of Harvard College, priority 2022, published 2026).
pEC50, pIC50: −log10 of the molar value. Values belong to the compound of their own block, whether it stands above or below them.

Key:
DLBCL cell line OCI-LY3 = assay: 5-day MTT assay in OCI-LY3 cells; format: cell-based; conditions: OCI-LY3, 5-day MTT assay
Procedure: (§1) Viability Assay: 10,000 cells (e.g., MOLM-13 cells, MLL-AF9 leukemic cells or normal BM cells) were plated onto flat-bottom 96-well plates in media with increasing concentration of compound up to […]. […] For measuring viability, Cell-Titer Glo kit (Promega) or MTT kit was used following manufacturer's instructions. For Cell-Titer Glo assay, cells were cooled to room temperature for 20-30 min, 100 μL of the cultured cells were transferred to opaque-white bottom 96-well plates and mixed with 100 μL of Cell-Titer Glo reagent. The mixture was incubated for 15 min at room temperature and read using a Synergy H1 Hybrid reader (BioTek) for luminescence. Data was normalized as percentage viability and graphed by non-linear regression curves in Graph Pad PRISM 7.0.

[1] = tested on: endometrioid ovarian cancer cell line A2780; assay: 5-day MTT assay in A2780 cells; format: cell-based; conditions: A2780, 5-day MTT assay
Procedure: as §1

[2] = tested on: small cell lung cancer cell line NCI-H1048; assay: 5-day MTT assay in NCI-H1048 cells; format: cell-based; conditions: NCI-H1048, 5-day MTT assay
Procedure: as §1

[3] = In vitro solubility in DMSO; format: physicochemical
MOLM-13 cells = assay: Cell viability assay in MOLM-13 cells; format: cell-based; conditions: Homo sapiens, read-out: IC50 (cytotoxicity)
Procedure: Viability Assay: 10,000 cells (e.g., MOLM-13 cells, MLL-AF9 leukemic cells or normal BM cells) were plated onto flat-bottom 96-well plates in media with increasing concentration of compound up to 100 µM. Cells were cultured for 72 h at 37° C. in a 5% CO2 incubator. For measuring viability, Cell-Titer Glo kit (Promega) or MTT kit was used following manufacturer's instructions. For Cell-Titer Glo assay, cells were cooled to room temperature for 20-30 min, 100 μL of the cultured cells were transferred to opaque-white bottom 96-well plates and mixed with 100 μL of Cell-Titer Glo reagent. The mixture was incubated for 15 min at room temperature and read using a Synergy H1 Hybrid reader (BioTek) for luminescence. Data was normalized as percentage viability and graphed by non-linear regression curves in Graph Pad PRISM 7.0.

pEC50 (DLBCL cell line OCI-LY3): 7.44 | pEC50 [1]: 6.57 | pEC50 [2]: 8.15
SMILES: O=C1CCC(N2Cc3cc(CNC(=O)C(F)(F)c4ccc(Cl)cc4)ccc3C2=O)C(=O)N1 (stereo not shown) [CC-90009, reference compound]

solubility (in words) [3]: limited solubility | pEC50 (DLBCL cell line OCI-LY3; Homo sapiens, 120 h): 8.10
SMILES: COc1ccc2cc(C(=O)Nc3ccc4c(c3)CN(C3CCC(=O)NC3=O)C4=O)ccc2c1 (stereo not shown) [DEG-35, N-(2-(2,6-dioxopiperidin-3-yl)-1-oxoisoindolin-5-yl)-6-methoxy-2-naphthamide]
pIC50 (MOLM-13 cells): 8.22

SMILES: COc1ccc2cc(C(=O)Nc3ccc4c(c3)CN(C3CCC(=O)N(C)C3=O)C4=O)ccc2c1 (stereo not shown) [Me-DEG-35, 6-methoxy-N-(2-(1-methyl-2,6-dioxopiperidin-3-yl)-1-oxoisoindolin-5-yl)-2-naphthamide]
sensitivity of OCI-LY3 cells (in words) (DLBCL cell line OCI-LY3): limited activity | sensitivity of A2780 cells (in words) [1]: limited activity

SMILES: COc1cc(C(=O)O)ccc1NC(=O)[C@@H]1N[C@@H](CC(C)(C)C)[C@](C#N)(c2ccc(Cl)cc2F)[C@H]1c1cccc(Cl)c1F [idasanutlin, reference compound]
sensitivity of OCI-LY3 cells (in words) (DLBCL cell line OCI-LY3): very limited sensitivity | sensitivity of A2780 cells (in words) [1]: no demonstrable sensitivity
